Measurements: PMC12396409, “Screening and hit evaluation of a microbial metabolite library against the pathogenic Plasmodium falciparum and Toxoplasma gondii parasites” (International Journal for Parasitology: Drugs and Drug …, 2025)
Like-named read-outs stand apart in the source and are kept apart here.

Legend:
[1] = tested on: P. falciparum 3D7 parasites; experiment: P. falciparum growth inhibition assay, 1-cycle (72 h treatment), SYBR DNA staining (library screen at 2 μg/mL and dose-response); assay type: cell-based, Plasmodium falciparum; conditions: for activity at 2 µg/mL: Plasmodium falciparum
[2] = tested on: T. gondii RH strain (RH-Tub-eYFP) tachyzoites; experiment: microbe, parasite or virus in culture; assay type: cell-based, Toxoplasma gondii; conditions: 72 h, 72 h; for percent parasite growth at 2 µg/mL: Toxoplasma gondii
[3] = tested on: P. falciparum 3D7 parasites; experiment: P. falciparum growth inhibition assay, 2-cycle (120 h treatment), delayed-death screen and dose-response; assay type: cell-based, Plasmodium falciparum; conditions: for activity at 2 µg/mL: Plasmodium falciparum
[4] = P. falciparum, 72 h, screen at 2 μg/mL, replicate 1
[5] = P. falciparum, 72 h, screen at 2 μg/mL, replicate 2
[6] = T. gondii, screen at 2 μg/mL, replicate 1
[7] = T. gondii, screen at 2 μg/mL, replicate 2
[8] = P. falciparum, 120 h, screen at 2 μg/mL, replicate 1
[9] = P. falciparum, 120 h, screen at 2 μg/mL, replicate 2
[10] = 3D7, P. falciparum, 72 h, parasite screen 2 μg/mL, % growth, replicate 1, read-out: Pf_72h_%Growth_Rep1
[11] = 3D7, P. falciparum, 72 h, parasite screen 2 μg/mL, % growth, replicate 2, read-out: Pf_72h_%Growth_Rep2
[12] = T. gondii, parasite screen 2 μg/mL, % growth, replicate 1, read-out: Tg_72h_%Growth_Rep1
[13] = T. gondii, parasite screen 2 μg/mL, % growth, replicate 2, read-out: Tg_72h_%Growth_Rep2
[14] = 3D7, P. falciparum, 120 h, parasite screen 2 μg/mL, % growth, replicate 1, read-out: Pf_120h_%Growth_Rep1
[15] = 3D7, P. falciparum, 120 h, parasite screen 2 μg/mL, % growth, replicate 2, read-out: Pf_120h_%Growth_Rep2

CCCCc1ccc(C(=O)O)nc1 [Fusaric acid]
activity at 2 µg/mL ([1]; 3D7, 72 h, library screen at 2 μg/mL, 72 h, % growth, replicate 1, read-out: Pf_72h_%Growth_Rep1): 78%
activity at 2 µg/mL ([1]; 3D7, 72 h, library screen at 2 μg/mL, 72 h, % growth, replicate 2, read-out: Pf_72h_%Growth_Rep2): 31.2%
percent parasite growth at 2 µg/mL ([2]; library screen at 2 μg/mL, % growth, replicate 1, read-out: Tg_72h_%Growth_Rep1): 118%
percent parasite growth at 2 µg/mL ([2]; library screen at 2 μg/mL, % growth, replicate 2, read-out: Tg_72h_%Growth_Rep2): 83.8%
activity at 2 µg/mL ([3]; 3D7, 120 h, library screen at 2 μg/mL, 120 h, % growth, replicate 1, read-out: Pf_120h_%Growth_Rep1): 80.2%
activity at 2 µg/mL ([3]; 3D7, 120 h, library screen at 2 μg/mL, 120 h, % growth, replicate 2, read-out: Pf_120h_%Growth_Rep2): 85%

C[C@@H]1C[C@@H]([C@H](O)CC2CC(=O)NC(=O)C2)C(=O)[C@@H](C)C1 [cycloheximide, reference compound]
activity in the screen against P. falciparum ([1]; 2 μg/mL, 72 h, active = ≥80 % growth inhibition): active
activity at 2 µg/mL ([1]; 3D7, P. falciparum, 72 h, screen at 2 μg/mL, replicate 1, read-out: Pf_72h_%Growth_Rep1): 1.07%
activity at 2 µg/mL ([1]; 3D7, P. falciparum, 72 h, screen at 2 μg/mL, replicate 2, read-out: Pf_72h_%Growth_Rep2): 4.34%
percent parasite growth at 2 µg/mL ([2]; T. gondii, screen at 2 μg/mL, replicate 1, read-out: Tg_72h_%Growth_Rep1): 7.84%
percent parasite growth at 2 µg/mL ([2]; T. gondii, screen at 2 μg/mL, replicate 2, read-out: Tg_72h_%Growth_Rep2): 1.95%
activity at 2 µg/mL ([3]; 3D7, P. falciparum, 120 h, screen at 2 μg/mL, replicate 1, read-out: Pf_120h_%Growth_Rep1): 1.73%
activity at 2 µg/mL ([3]; 3D7, P. falciparum, 120 h, screen at 2 μg/mL, replicate 2, read-out: Pf_120h_%Growth_Rep2): 0.69%

COc1ccc2c3c([nH]c2c1)C(C)(C)C=CN1C(=O)[C@H](C)NC(=O)/C1=C/3 [Cycloechinulin]
Pf_72h_%Growth_Rep1 [1, 4]: 63.19%
Pf_72h_%Growth_Rep2 [1, 5]: 64.05%
Tg_72h_%Growth_Rep1 [2, 6]: 136.66%
Tg_72h_%Growth_Rep2 [2, 7]: 103.07%
Pf_120h_%Growth_Rep1 [3, 8]: 51.02%
Pf_120h_%Growth_Rep2 [3, 9]: 53.71%

CC1CC=CC=CC=CC=CC(OC2OC(C)C(O)C(N)C2O)CC2OC(O)(CC(O)CC3OC3C=CC(=O)O1)CC(O)C2C(=O)O (stereo not shown) [BIA-P1210]
Pf_72h_%Growth_Rep1 ([1]; P. falciparum 3D7, 72 h, parasite screen at 2 μg/mL, % growth, replicate 1): 82.66%
Pf_72h_%Growth_Rep2 ([1]; P. falciparum 3D7, 72 h, parasite screen at 2 μg/mL, % growth, replicate 2): 61.24%
Tg_72h_%Growth_Rep1 ([2]; T. gondii, parasite screen at 2 μg/mL, % growth, replicate 1): 91.98%
Tg_72h_%Growth_Rep2 ([2]; T. gondii, parasite screen at 2 μg/mL, % growth, replicate 2): 100.38%
Pf_120h_%Growth_Rep1 ([3]; P. falciparum 3D7, 120 h, parasite screen at 2 μg/mL, % growth, replicate 1): 62.24%
Pf_120h_%Growth_Rep2 ([3]; P. falciparum 3D7, 120 h, parasite screen at 2 μg/mL, % growth, replicate 2): 79.36%

COC(=O)c1cc(O)cc(OC)c1C(=O)c1c(O)cc(C)cc1O [Sulochrin]
activity at 2 µg/mL [1, 10]: 88.9%
activity at 2 µg/mL [1, 11]: 90.8%
percent parasite growth at 2 µg/mL [2, 12]: 153%
percent parasite growth at 2 µg/mL [2, 13]: 100%
activity at 2 µg/mL [3, 14]: 93.2%
activity at 2 µg/mL [3, 15]: 96.4%

COc1ccc(C[C@H](N)C(=O)N[C@H]2[C@@H](O)[C@H](n3cnc4c(N(C)C)ncnc43)O[C@@H]2CO)cc1 [Puromycin]
activity at 2 µg/mL [1, 10]: 1.82%
activity at 2 µg/mL [1, 11]: 1.65%
percent parasite growth at 2 µg/mL [2, 12]: -0.59%
percent parasite growth at 2 µg/mL [2, 13]: 1.12%
activity at 2 µg/mL [3, 14]: -0.01%
activity at 2 µg/mL [3, 15]: 7.14%

COc1cc([C@H]2[C@@]3(O)C[C@H]4C[C@]2(O)[C@](O)(C(=O)O4)[C@H]3C(=O)c2ccccc2)oc(=O)c1 [Deoxyenterocin]
Pf_72h_%Growth_Rep1 [1, 4]: 87.29%
Pf_72h_%Growth_Rep2 [1, 5]: 90.62%
Tg_72h_%Growth_Rep1 [2, 6]: 127.64%
Tg_72h_%Growth_Rep2 [2, 7]: 104.18%
Pf_120h_%Growth_Rep1 [3, 8]: 64.95%
Pf_120h_%Growth_Rep2 [3, 9]: 102.75%

CC[C@H]1C[C@]23OC(=O)/C(=C(\O)[C@@]4(CC)[C@@H]5CC[C@H](C)[C@H](O[C@H]6C[C@H](O)[C@H](NC(=O)c7[nH]c(Cl)cc7Cl)[C@@H](C)O6)[C@H]5C=C[C@H]4C/C=C/C/C(C)=C/[C@@]2(C)C=C1C(=O)O)C3=O [Decatromicin B]
Pf_72h_%Growth_Rep1 [1, 4]: 89.49%
Pf_72h_%Growth_Rep2 [1, 5]: 90.33%
Tg_72h_%Growth_Rep1 [2, 6]: 105.42%
Tg_72h_%Growth_Rep2 [2, 7]: 104.91%
Pf_120h_%Growth_Rep1 [3, 8]: 74.87%
Pf_120h_%Growth_Rep2 [3, 9]: 101.36%
